We go through ten molecules from US6136552A, “High-affinity salicylic acid-binding protein and methods of use” (Rutgers, The State University of New Jersey, priority 1997, dated 2000).

The target of assay [1] is T1, SABP2 (Nicotiana tabacum, UniProt Q6RYA0).
T1 construct: Soluble proteins were extracted from the powdered leaves; from tissue; host or cells: tobacco leaf (cv. Xanthi nc), 50-75% ammonium sulfate fraction
T1 sequence (Q6RYA0 1-260): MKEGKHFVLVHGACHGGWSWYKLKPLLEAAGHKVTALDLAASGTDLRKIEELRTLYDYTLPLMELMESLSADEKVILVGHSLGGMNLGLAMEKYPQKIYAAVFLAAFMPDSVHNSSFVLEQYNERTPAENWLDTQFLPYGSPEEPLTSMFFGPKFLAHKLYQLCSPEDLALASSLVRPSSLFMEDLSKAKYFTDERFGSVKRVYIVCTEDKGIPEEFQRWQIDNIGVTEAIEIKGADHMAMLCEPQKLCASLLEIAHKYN
Put plainly: [3H]SA competition assay with unlabeled SA and SA analogues. Format: binding, tobacco. The procedure:
(§1) [3H]SA binding and competition assays. […] Spin columns were prepared by packing Sephadex G25 gel (exclusion limit 5 kDa; Pharmacia), which was pre-equilibrated in buffer A, in a 1-mL disposable syringe and centrifuging at 1,000 g for 4 minutes at 4° C. This process was repeated until the bed volume of the spin column reached 1 mL. One additional spin with 125 μL buffer A was performed under the same centrifugation conditions. The binding mixture (125 μL) was loaded onto the spin column and immediately centrifuged. […] When no protein extract was included in the binding mixture, the background radioactivity level was 33±3 dpm/100 μL. For the boiling treatment, the extract was boiled for 5 minutes and denatured protein aggregates were removed by centrifugation at 12,000 g for 1 minute.

In assay [2] the test system is PR gene expression and enhanced disease resistance. Further details: key to Biological activity: +, active; -, inactive. The conditions noted are these: cited from earlier work; for Biological activity: based on FIG. 7 and literature.
The target of assay [3] is T2, tobacco catalase (Nicotiana tabacum, UniProt P49319).
T2 construct: tobacco catalase activity in suspension cells and in crude leaf extracts; host or cells: tobacco suspension cells, crude leaf extracts, purified enzyme
T2 sequence (P49319 1-492): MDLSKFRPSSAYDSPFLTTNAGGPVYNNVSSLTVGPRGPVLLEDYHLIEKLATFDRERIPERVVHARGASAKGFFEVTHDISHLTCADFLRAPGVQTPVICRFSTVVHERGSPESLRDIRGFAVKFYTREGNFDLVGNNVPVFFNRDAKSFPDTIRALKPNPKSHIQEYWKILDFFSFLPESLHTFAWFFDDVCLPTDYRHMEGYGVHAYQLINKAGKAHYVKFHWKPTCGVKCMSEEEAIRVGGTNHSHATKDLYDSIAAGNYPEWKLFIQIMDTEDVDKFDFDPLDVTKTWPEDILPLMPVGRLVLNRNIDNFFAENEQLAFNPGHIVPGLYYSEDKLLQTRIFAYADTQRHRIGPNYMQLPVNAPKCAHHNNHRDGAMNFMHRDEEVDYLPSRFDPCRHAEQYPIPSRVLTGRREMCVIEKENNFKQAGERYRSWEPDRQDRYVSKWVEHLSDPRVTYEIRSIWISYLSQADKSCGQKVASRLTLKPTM
The conditions noted are these: cited from earlier work.

Assay [4] deals with tobacco catalase. The conditions noted are these: in vivo; cited from earlier work.
Assay [5] deals with T1, SABP2. As to the kind of experiment: [3H]SA binding assay (kinetics, reversibility, saturation, Scatchard plot). Set-up: species or system tobacco. The conditions noted are these: for time until binding is complete / approaches equilibrium: 0-4° C. The procedure:
as §1

For the next assay, the target named is T3, catalase (Nicotiana tabacum, UniProt P49319).
T3 construct: has been identified in tobacco leaf extracts; host or cells: tobacco leaf extracts
T3 sequence (P49319 1-492): T2 sequence (P49319 1-492)
The conditions noted are these: cited from earlier work.

The next assay has as its system APX. The conditions noted are these: cited from earlier work.
Another assay concerns PR-1 gene expression. As to the kind of experiment: Induction of PR-1 gene expression in leaf discs (northern blot). It is filed as cell-based, tobacco. The conditions noted are these: Nicotiana tabacum, foliar, 24 hours after treatment, read-out: concentration giving 15-fold induction of PR-1 gene expression. The source says:
As a control, rRNA present in each lane is also shown. FIG. 7B is a graph showing quantification of the fold-induction of the PR-1 mRNA levels after SA (.cndot.) and BTH (.smallcircle.) treatment. The levels of PR-1 mRNA were normalized to the amounts of rRNA. The rRNA-normalized levels of PR-1 mRNA obtained after infiltration of leaf discs with SA or BTH were divided by the rRNA-normalized level of PR-1 mRNA obtained after infiltration with water only to determine the fold induction. The data presented are from a single experiment; two additional experiments were done. The maximum-fold induction of the PR-1 genes and the concentrations of SA and BTH required to reach approximately 50% of this value varied somewhat among the three experiments, depending on the age of the plant. In the three experiments, the concentrations of BTH needed to reach approximately 50% induction were 30- to 40-fold lower than those for SA.

For assay [6], the target named is T2, tobacco catalase. Put plainly: Inhibition of catalase activity. It is filed as biochemical. The conditions noted are these: unpublished data.
[7] abbreviates: 50-75% fraction, 0.1 μM [3H]SA, on ice 2 hours, estimated from FIG. 6, read-out: IC50 of competition for [3H]SA binding.

Read-outs that look alike come from different tables or passages of the source.

What is called IC50 is the concentration that inhibits the measured activity by half. `O=C(O)c1cc(Cl)nc(Cl)c1` [INA, 2,6-dichloroisonicotinic acid]: the IC50 on SABP2 [1] was 70 µM. Further, the Biological activity entry in [2] is “+”. In addition, the “Biologically active / inactive (FIG. 6 legend)” value (“Biologically active / inactive” for short) in assay [2] (in vivo) is on record as “Biologically active”. At tobacco catalase [3] (crude extracts), the “inhibition of catalase activity in crude extracts” value is “less effective at inhibiting catalase activity in crude extracts”. In addition, the “inhibition of purified tobacco catalase” value on tobacco catalase [3] (purified enzyme) was “fails to inhibit purified tobacco catalase”. For the same molecule, the “inhibition of tobacco catalase in vivo” value in the assay on tobacco catalase [4] is “effectively blocks tobacco catalase in vivo”.
In the case of `O=C(O)c1cccc(O)c1` [3-hydroxybenzoic acid], the IC50 at SABP2 [1] (setting [7]) is 105 µM. For the same molecule, the Biological activity result in assay [2] is “-”. Moreover, the “Biologically active / inactive” value in assay [2] (in vivo) is “biologically inactive”.
With `O=C(O)c1c(O)cccc1O` [2,6-dihydroxybenzoic acid], the IC50 at SABP2 [1] (setting [7]) was 2 µM. The Biological activity result in [2] is listed as “+”. For the same molecule, the “Biologically active / inactive” value in [2] (in vivo) is “Biologically active”.
By Kd is commonly meant a measure of binding affinity in units of concentration. `O=C(O)c1ccccc1O` [SA, salicylic acid] had an IC50 on SABP2 [1] of 1.5 µM. Moreover, the “time until binding is complete / approaches equilibrium” value on SABP2 [5] is 15 to 20 min. In addition, the inhibition at 1000 µM on SABP2 [5] (50-75% fraction, 1 mM SA, 0.1 μM [3H]SA, read-out: reduction of binding activity in the presence of excess unlabeled SA) came out at 85%. Besides, at SABP2 [5] (100% = binding after 160 minutes of incubation, read-out: [3H]SA binding remaining after addition of 1 mM SA), the remaining activity at 1000 µM was below 10%. The Kd on SABP2 [5] (Scatchard plot, 50-75% fraction) was 0.09 µM; at catalase ([14C]SA, tobacco leaf extracts, read-out: Kd of SA binding to catalase) it was 14 µM. Also, the “time until binding to catalase approaches equilibrium” value on catalase is 90 to 120 min. The Biological activity result in assay [2] is reported as “+”. In addition, the “Biologically active / inactive” value in [2] (in vivo) is “Biologically active”. For the same molecule, the “SA level required for effective inhibition of catalase activity” value on tobacco catalase [3] was 50 to 300 µM. The “SA level required for effective inhibition of APX activity” value in the assay on APX was 50 to 300 µM.
Consider `O=C(O)c1ccccc1O` [[^3 H]SA], for which the “time until binding is complete / approaches equilibrium” value at SABP2 [5] is listed as “approximately 20 minutes”. At SABP2 [5] (50-75% fraction), this molecule registered a half association time of 5 min.
Consider `CSC(=O)c1cccc2nnsc12` [BTH, benzo(1,2,3)thiadiazole-7-carbothioic acid S-methyl ester], for which the IC50 on SABP2 [1] is 0.1 µM. Besides, the EC (15-fold) with PR-1 gene expression was around 3.3 µM. Also, the “catalase inhibition compared with SA” value on tobacco catalase [6] is listed as “more effective inhibitor of catalase than SA”. For the same molecule, the Biological activity entry in assay [2] is “+”. In addition, in assay [2] (in vivo), the “Biologically active / inactive” value is listed as “Biologically active”.
As for `O=C(O)c1cc(O)ccc1O` [2,5-dihydroxybenzoic acid], the half-maximal inhibitory concentration (IC50) on SABP2 [1] (setting [7]) was 20 µM. In assay [2], the Biological activity entry is given as “-”. Besides, the “Biologically active / inactive” value in assay [2] (in vivo) was “biologically inactive”.
As to `O=C(O)c1ccccc1O[C@@H]1O[C@H](CO)[C@@H](O)[C@H](O)[C@H]1O` [SA β-glucoside], in assay [2] (in vivo), the “induction of disease resistance” value is on record as “not active”.
For the molecule `O=C(O)c1cc(Cl)ccc1O` [5-chloroSA, 5-chlorosalicylic acid], the half-inhibitory concentration (IC50) at SABP2 [1] (setting [7]) was 0.3 µM. For the same molecule, the Biological activity entry in [2] is reported as “+”. For the same molecule, the “Biologically active / inactive” value in assay [2] (in vivo) was “Biologically active”.
Consider `O=C(O)c1ccc(O)cc1` [4-hydroxybenzoic acid], for which the IC50 at SABP2 [1] (setting [7]) was above 1000 µM. Besides, in assay [2], the Biological activity entry is “-”. In addition, the “Biologically active / inactive” value in [2] (in vivo) was “biologically inactive”.
